Data taken from US20240252477A1, “NLRP3 INFLAMMASOME-INHIBITING COMPOUNDS AND THE USE THEREOF” (UNIVERSITA' DEGLI STUDI DI TORINO (60%), priority 2021, published 2024).

Key:
IL-1beta = target: T1, IL-1beta (Homo sapiens, UniProt P01584); settings: cited from earlier work
T1 construct: host or cells: patients (clinical trial)

NLRP3 inflammasome = target: T2, NLRP3 inflammasome (Homo sapiens, UniProt Q96P20); experiment: NLRP3-dependent pyroptosis (LDH release) in PMA-differentiated THP-1 cells stimulated with LPS/ATP; type: cell-based; settings: compounds at 10 μM for 1 hour, differentiated THP-1, LPS 10 μg/mL 4 hours, ATP 1.5 hours; for inhibition at 10 µM: read-out: Pyroptosis inhibition (% ± SEM)
T2 construct: The THP-1 cells were differentiated into macrophages by treating them with PMA 50 nM; endogenous in cells; host or cells: THP-1 (human monocytic leukaemia line), PMA-differentiated, primed with LPS, triggered with ATP
Description: THP-1 cells, a monocytic human cell line derived from the peripheral blood of a patient suffering from acute monocytic leukaemia (www.atcc.org), were cultured in RPMI 1640 medium (Aurogene, Rome, Italy), with the addition of foetal bovine serum (10%, Aurogene), L-glutamine (2 mM, Aurogene), penicillin (100 IU/ml, Aurogene) and streptomycin ([…], Aurogene). The medium was changed every 2-3 days, and the cells were maintained in an incubator at 37° C., with 5% CO2, and with suitable humidity.
The cells were seeded in 48-well plates (90.000 cells/well), and differentiated with phorbol 12-myristate 13-acetate (PMA—50 nM, 24 hours; Sigma-Aldrich). On the next day, the differentiated THP-1s were washed twice with the balanced saline solution phosphate-buffered saline (PBS), and stimulated with lipopolysaccharide (LPS) (10 μg/mL, 4 hours; Sigma-Aldrich), prepared in serum-free medium. After 4 hours the cells were incubated with the compounds at the concentration of 10 μM for 1 hour, operating in triplicate; INF176 and INF177 were tested at three different concentrations: […]. Finally, the cells were stimulated with ATP 5 mm for 1.5 hours. The supernatants were then harvested for the subsequent analyses.
LDH release into the supernatant obtained as described above was quantified using the CytoTox 96 nonradioactive cytotoxicity assay (Promega Corporation, Madison, […], USA), a colorimetric assay wherein LDH activity is measured with an NADH-dependent enzymatic reaction:
Briefly, an equal volume of CytoTox Reagent was added to the supernatant and, after 30 minutes' incubation, the reaction was stopped by adding the stop solution. The formazan concentration was determined by measuring absorbance, using a microplate reader (Victor X4—EnSight, PerkinElmer, Waltham, MA, USA), at λ=490 nm. Cell death was expressed according to the manufacturer's instructions.
The compound INF176 was tested to measure its ability to inhibit NLRP3-dependent cell pyroptosis in human macrophages, using the experimental protocol previously published [Cocco et al. 2017].
The THP-1 cells were differentiated into macrophages by treating them with PMA 50 nM (24 hours) and then with LPS (10 μg/mL) for 4 hours. The cells were treated with the compound (10 μM) for 1 hour. Pyroptosis was induced by treatment with ATP 5 mm. After 90 minutes, cell death was evaluated by measuring the LDH level in the cell supernatant using the CytoTox 96 Non-Radioactive Cytotoxicity Assay (Promega Corporation, Madison, […], USA).

Cytotoxicity (MTT assay) = type: cell-based, human; settings: human; THP-1 cells, 72 hours' incubation
Description: (§1) The THP-1 cells were seeded in a 96-well plate (15.000 cells/well) and incubated with the test compounds at four different concentrations (0.1, 1, 10 and 100 μM), operating in triplicate. The cells were placed in an incubator at 37° C., with 5% CO2, and cell viability was measured after 72 hours' incubation, using the MTT assay. This is a colorimetric assay, based on conversion of water-soluble 3-(4,5-dimethylthiazol-2-yl)-2,5-diphenyltetrazolium bromide (MTT; Sigma-Aldrich) to a violet-coloured insoluble formazan, by the mitochondrial dehydrogenase present in the live cells. The formazan is solubilised in acidified isopropanol, and the concentration is determined by measuring absorbance with a microplate reader (Victor X4—Ensight, PerkinElmer) at λ=570 nm. Viability was expressed as a percentage of the viability of the control cells, which were either untreated or treated with the carrier. The IC50 was calculated with the Graph Pad Prism software.

[1] = Stability in PBS pH 7.4 with excess glutathione or cysteamine (HPLC); type: physicochemical; settings: 100 μM, PBS pH 7.4, 37° C.
Description: The compound INF177 was incubated at the concentration of 100 μM in PBS pH 7.4 (0.1% DMSO) at 37° C., in the absence and in the presence of excess glutathione or cysteamine (10×). The reaction mixture underwent repeated HPLC analyses over 24 hours.
The HPLC analysis was conducted with an HP 1200 chromatography system (Agilent Technologies, Palo Alto, CA, USA) consisting of an integrated quaternary pump (model G1311A), degasser (model G1322A), UV MWD detector (model G1365D) and fluorescence detector (model G1321A). The data were processed with the HP ChemStation system program (Agilent Technologies).
The analyses were conducted using the ZORBAX SB-Phenyl column (250×4.6 mm, 5 μm; Agilent) as stationary phase and CH3CN/H2O (+0.1% HCOOH), 70/30 (v/v), flow rate=1.0 mL/min, as mobile phase, injecting 20 μL of sample (Rheodyne, Cotati, CA); the chromatograms were acquired at the wavelengths of 234 and 250 nm.

THP-1 cells = experiment: Cytotoxicity (MTT assay); type: cell-based, human
Description: as §1

T2 sequence (Q96P20 whole entry): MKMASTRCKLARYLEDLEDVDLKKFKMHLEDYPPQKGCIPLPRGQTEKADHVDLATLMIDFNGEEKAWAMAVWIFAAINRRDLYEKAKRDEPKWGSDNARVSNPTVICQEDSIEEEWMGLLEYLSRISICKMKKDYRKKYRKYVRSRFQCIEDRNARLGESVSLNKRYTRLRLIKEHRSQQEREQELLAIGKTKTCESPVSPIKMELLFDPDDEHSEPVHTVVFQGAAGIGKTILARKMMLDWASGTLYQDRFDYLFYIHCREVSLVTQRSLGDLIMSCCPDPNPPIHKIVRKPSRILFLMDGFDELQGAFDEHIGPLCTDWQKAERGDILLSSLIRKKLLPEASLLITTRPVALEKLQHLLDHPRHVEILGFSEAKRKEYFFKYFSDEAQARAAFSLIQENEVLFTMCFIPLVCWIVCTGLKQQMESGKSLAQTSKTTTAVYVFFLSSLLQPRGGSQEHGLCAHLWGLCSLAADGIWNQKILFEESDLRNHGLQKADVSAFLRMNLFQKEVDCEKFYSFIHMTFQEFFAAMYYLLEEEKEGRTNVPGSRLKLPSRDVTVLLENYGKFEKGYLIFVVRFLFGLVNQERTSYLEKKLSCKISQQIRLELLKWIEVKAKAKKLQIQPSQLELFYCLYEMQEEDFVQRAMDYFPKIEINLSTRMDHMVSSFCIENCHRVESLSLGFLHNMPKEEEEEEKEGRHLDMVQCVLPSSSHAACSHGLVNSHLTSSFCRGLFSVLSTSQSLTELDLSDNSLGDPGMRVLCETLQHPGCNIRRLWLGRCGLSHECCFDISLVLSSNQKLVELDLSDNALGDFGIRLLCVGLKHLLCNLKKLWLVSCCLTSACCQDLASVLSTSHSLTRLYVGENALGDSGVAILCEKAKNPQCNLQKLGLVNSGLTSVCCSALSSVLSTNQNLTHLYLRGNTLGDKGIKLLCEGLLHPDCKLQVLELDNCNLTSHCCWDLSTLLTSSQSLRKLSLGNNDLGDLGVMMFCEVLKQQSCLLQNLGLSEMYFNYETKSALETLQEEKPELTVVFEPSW

| Molecule | inhibition at 10 µM (NLRP3 inflammasome) | IC50 at 72 h (Cytotoxicity (MTT assay)) | also measured |
| --- | --- | --- | --- |
| canakinumab |  |  | reduction in lung cancer deaths (IL-1beta; after treatment with canakinumab): 77%; change in mortality due to cardiovascular events (IL-1beta; patients at cardiovascular risk): −31% |
| O=C(O)C1CCCN(C(=O)/C(=C/c2ccccc2Cl)CSc2ccccc2)C1 (centres unmarked) [INF177, (Z)-1-(3-(2-chlorophenyl)-2-((phenylthio)methyl)acryloyl)piperidine-3-carboxylic acid] | 20.1 ± 9.8% | > 100 µM | reactivity towards glutathione or cysteamine ([1]; 10× excess thiol, over 24 hours): no appreciable reactivity was observed; % compound remaining ([1]; cysteamine 10×, after 2.5 hours): > 98%; % compound remaining ([1]; glutathione 10×, after 4 hours): > 98%; % compound remaining ([1]; glutathione or cysteamine 10×, 24 hours): ≥ 96% |
| (Z)-3-(2-chlorophenyl)-2-((phenylthio)methyl)acrylic acid [INF80] |  |  | Pyroptosis inhibition (% ± SEM) (NLRP3 inflammasome): <10%; IC50 (THP-1 cells): 92.8 ± 1.6 µM |
| NS(=O)(=O)c1ccc(CCNC(=O)/C(=C/c2ccccc2Cl)CSc2ccccc2)cc1 [INF220, (Z)-3-(2-chlorophenyl)-2-((phenylthio)methyl)-N-(4-sulphamoylphenethyl)acrylamide] | 73.9 ± 13.9% | > 62.5 µM |  |
| CCOC(=O)/C(=C/c1ccccc1Cl)C[S+]([O-])c1ccccc1 (centres unmarked) [INF50, (Z)-ethyl 3-(2-chlorophenyl)-2-((phenylsulphinyl)methyl)acrylate] | 41.1 ± 2.5% | 9.7 ± 0.2 µM |  |
| CCOC(=O)C1CCCN(C(=O)/C(=C/c2ccccc2Cl)CSC2CCCCC2)C1 (centres unmarked) [INF194, ethyl (Z)-1-(3-(2-chlorophenyl)-2-((cyclohexylthio)methyl)acryloyl)piperidine-3-carboxylate] | < 10% | 78.3 ± 10.2 µM |  |

Now from value to molecule, other results behind:

| inhibition at 10 µM (NLRP3 inflammasome) | Molecule | IC50 at 72 h (Cytotoxicity (MTT assay)) | also measured |
| --- | --- | --- | --- |
| 13 ± 8.2% | NC(=O)C1CCCN(C(=O)/C(=C/c2ccccc2Cl)CSc2ccccc2)C1 (centres unmarked) [INF219, (Z)-1-(3-(2-chlorophenyl)-2-((phenylthio)methyl)acryloyl)piperidine-3-carboxamide] | > 100 µM | melting point: 60.5 to 61.4 °C |
| 41.7 ± 5.2% | CCOC(=O)C(Cc1ccccc1Cl)CN1CCCC1 (centres unmarked) [INF61, ethyl 2-(2-chlorobenzyl)-3-(pyrrolidine-1-yl)propanoate] | > 100 µM |  |
| 51 ± 5.6% | CCOC(=O)C(CSc1ccccc1)Cc1ccccc1Cl (centres unmarked) [INF43, ethyl 2-(2-chlorobenzyl)-3-(phenylthio)propanoate] | > 100 µM |  |
